We go through two molecules from patent US9980972B2, “Rho kinase inhibitors for use in treating familial amyotrophic lateral sclerosis” (GEORG-AUGUST-UNIVERSITÄT GÖTTINGEN STIFTUNG ÖFFENTLICHEN …, priority 2012, dated 2018).

The subject of test [1] is SOD1 G93A mouse model of ALS. Briefly: Survival (age at death) in SOD1 G93A mouse model of ALS. The settings on record: presymptomatic from d50, 10 mg/kg body weight, male and female. It counts as in vivo. From the text:
High-copy B6SJL-Tg(SOD1*G93A)1Gur/J were obtained from Jackson Labs (Stock Number 002726; Bar Harbor, USA) that had originally been produced by Gurney et al. (Gurney, Pu et al. 1994). The colony was maintained by crossing C57BL/6 males harboring the transgene with wild-type SJL females. To verify presence of the transgene in the F1 progeny, tail biopsies were collected from 14-day-old pups and genotyped using PCR. At the age of 35-45 days mice were moved to the testing facility to acclimate to the new environment with a 12-h light/dark cycle before being assigned to a study.
At 50 days (presymptomatic, d50) or 80 days of age (symptomatic, d80) mice were separated into Fasudil-30 (Fas30)- and Fasudil-100 (Fas100)-Treatment or Vehicle Control (Veh) groups. Prior to any treatment, groups were constituted so as to minimize between-group variability by using the following criteria. Groups were balanced with respect to gender and body weight within gender. In addition, groups were age-matched and littermate-matched. […] The study was observer-blinded.
To reach sufficient CSF levels of Fasudil the inventors administered Fasudil (LC Labs, Woburn, USA; product number F-4660) at a low concentration of […] (Fas30) or at a high concentration of 50 mg (Fas100) in 100 ml drinking water. Control groups received the respective amount of isotonic drinking water termed as vehicle (Veh).
Chronic oral treatment with a low dose of Fasudil (F30) or a high dose of Fasudil (F100) was started either presymptomatically at day 50 or symptomatically at day 80 and continued until death.
Survival. Date and cause of death were recorded for each mouse. For humane reasons, animals are closely monitored and sacrificed as moribund prior to actual death using criteria for severe moribundity. To determine duration of survival reliably and humanely, the moribund state, defined as the inability of mice to right themselves 30 seconds after being placed on a side (a neurological score of 4) was used. The moribund mice were scored as “dead”, and were euthanized using carbon dioxide.
The data were then analyzed using Kaplan-Meier survival fit analysis with the Log-Rank and Wilcoxon tests for statistical significance. Cox proportional hazards analysis was also performed to determine hazard ratios and test for statistical significance of their differences using the Effect Likelihood Chi Square test. Statistical analyses were performed using Statistica 9.1 (StatSoft, Hamburg, Germany). P-values less than 0.05 were taken to be statistically significant.
The criteria to terminate the therapy study (later referred to as time of death) were fulfilled if the animals had reached the terminal neurological scoring or had lost a defined percentage of the maximal body weight. This time point then reflects the survival time of the animals whereas disease duration was measured from onset of disease until time of death.

Test [2] relates to regenerating axons after optic nerve crush lesion. Particulars: high intravitreal dose 40 μmol/l in comparison to medium dose 400 nmol/l; cited from earlier work.

Take `C[C@@H](N)[C@H]1CC[C@H](C(=O)Nc2ccncc2)CC1` [Y-27632]: the survival entry in test [1] was “no significant effects”.
With `Cc1cncc2cccc(S(=O)(=O)N3CCCNC[C@@H]3C)c12` [dimethyl-fasudil, (S)-(+)-2-Methyl-1-[(4-methyl-5-isoquinolinyl)sulfonyl]-hexahydro-1H-1,4-diazepine], in test [2], the “number of regenerating axons after optic nerve crush lesion” value is recorded as “significantly reduced”.
